Test results as given in patent US20260021119A1, “TETRACYCLINE DERIVATIVES” (ICM (INSTITUT DU CERVEAU ET DE LA MOELLE ÉPINIÈRE), priority 2022, published 2026).
Converted amounts (≈) assume the structure as drawn. Where two headings read alike, the source gives them in different places.

Assays:
[1] = target: alpha-synuclein (Homo sapiens, UniProt P37840); test: alpha-synuclein aggregation, thioflavin T (ThT) fluorescence; assay type: biochemical; conditions: 20 μM
Description: The antiaggregant effect of the compound of formula (Ia) according to the present invention on alpha-synuclein (αS) was evaluated in vitro by measuring the fluorescence intensity of the probe thioflavin T (ThT), a molecule that specifically binds to cross-β structures characteristic of amyloid-like aggregation. The compound of formula (Ia) was dissolved in dimethylsulfoxide to reach a concentration of […]. In this assay, 70 μM of alpha-synuclein was incubated with and without 10 μM, 20 μM and 50 μM of the compound of formula (Ia), under orbital agitation (600 rpm), at 37° C., for 5 days. After the incubation time, Tht was added to each sample and changes in the emission fluorescence spectra (λex=450 and λem=[…]) was monitored using a Horiba Fluoromax CP4 spectrofluorometer.

[2] = test system: dopaminergic neurons (TH+ neurons); test: Neuroprotection: rescue of dopamine neurons from spontaneous oxidative stress in primary cultures; assay type: cell-based; conditions: for EC50: Neuron, read-out: Neuroprotection (EC 50 μM)
Description: In primary cultures of dopaminergic neurons, TH+ neurons suffer from oxidative stress, leading to the death of the neurons after a few days. When cultured in the presence of a positive reference (apotransferrin), the dopaminergic neurons survive. The neuroprotective effects of 10 μM of doxycycline (DOX) and of 3 μM or 5 μM of the compound of formula (Ia) according to the present invention were evaluated, compared to the effect of 100 μg/mL of apotransferrin (APO).
(§1) The properties of tetracycline derivatives, including the compound of formula (Ia) according to the present invention, were compared regarding the neuroprotection, anti-inflammatory effects, anti-aggregant activity, and antibiotic activity. The properties were evaluated as described herein above.
(§2) EC50s, IC50s determined graphically, *Rescue of dopamine neurons from spontaneous oxidative stress; ** TNF α release inhibition under LPS exposure, ^#Weak antibiotic activity on only 1 of the 3 bacterial strains (i.e. S aureus). ##Strong antibiotic activity on all 3 bacterial strains. ^###Significant antibiotic activity on two bacterial strains.

[3] = test system: Gram+ and Gram- bacteria (S. aureus, E. coli, E. faecalis, P. aeruginosa); test: Antibiotic activity, summary over the bacterial strains (Examples 3 and 7); assay type: cell-based; set-up: key to Antibiotic activity: low: Weak antibiotic activity on only 1 of the 3 bacterial strains (i.e. S aureus); high: Strong antibiotic activity on all 3 bacterial strains; Significant antibiotic activity on two bacterial strains; conditions: summary over bacterial strains
Description: (§3) Bacterial strains used in this study were: S. aureus (ATCC25923), E. coli (ATCC25922), E. faecalis (ATCC29212) and P. aeruginosa (PA01). Strains were maintained at −80° C. in 15% (v/v) glycerol for cryoprotection. Bacteria were routinely grown in Mueller-Hinton (MH) broth at 37° C.
(§4) The susceptibility of bacterial strains to antibiotics and compounds was determined in microplates using the standard broth dilution method in accordance with the recommendations of the Comité de 1′Antibiogramme de la Société Française de Microbiologie (CA-SFM). (Members of the SFM Antibiogram Committee, R. Int. J. Antimicrob. Agents 2003, 21, 364). Briefly, the Minimal Inhibitory Concentrations (MICs) were determined with an inoculum of 10^5 CFU in 200 μL of MH broth containing two-fold serial dilutions of each drug. […] To determine all MICs, the measurements were independently repeated in triplicate.
(§5) The compound of formula (Ia) according to the invention was tested against clinical isolates Gram-bacteria (P. aeruginosa, E. coli) and Gram+ bacteria (S. aureus, E. faecalis). Minimum inhibitory concentrations (MIC) were tentatively determined and compared to known antibiotic tetracyclines (doxycycline, demeclocycline, chlortetracycline) and to the compound of formula (B) disclosed in Example 1 of the present application. The test was reproduced twice and the average MIC were calculated.
as §1, §2

[4] = test system: microglia cells (TNF α release under LPS); test: Anti-inflammatory effect in microglia, TNF α release inhibition under LPS exposure; assay type: cell-based; conditions: TNF α release inhibition under LPS exposure, determined graphically; for IC50: Microglia, read-out: Anti inflammatory effects (IC 50 in μM)
Description: Microglia is in charge of the protection of the neurons. However, under stress conditions, microglia cells are responsible of inflammatory phenomena, leading eventually to the death of the neurons. The anti-inflammatory effects of 5 μM and 20 μM of compound of formula (B) presented in Example 1, of 5 μM and 20 μM of compound of formula (Ia) according to the present invention and of 50 μM of doxycycline (DOX) were evaluated, compared to the effect of 2.5 μM of dexamethasone (DEX). Microglia is in charge of the protection of the neurons. However, under stress conditions, microglia cells are responsible of inflammatory phenomena, leading eventually to the death of the neurons. The anti-inflammatory effects of 10 μM and 20 μM of compound of formula (C) (“10 μM (C)” and “20 μM (C)”) and of 10 μM and 20 μM of compound of formula (Ia) according to the present invention (“10 μM (Ia)” and “20 μM (Ia)”) were evaluated, compared to the effect of 2.5 μM of dexamethasone (“DEX”). The properties of tetracycline derivatives, including the compound of formula (Ia) according to the present invention, were compared regarding the neuroprotection, anti-inflammatory effects, anti-aggregant activity, and antibiotic activity. The properties were evaluated as described herein above. EC50s, IC50s determined graphically, *Rescue of dopamine neurons from spontaneous oxidative stress; ** TNF α release inhibition under LPS exposure, ^#Weak antibiotic activity on only 1 of the 3 bacterial strains (i.e. S aureus). ##Strong antibiotic activity on all 3 bacterial strains. ^###Significant antibiotic activity on two bacterial strains.

[5] = Brain penetration after single subcutaneous injection; assay type: in vivo; conditions: mouse, brain and serum, sc; 40 mg/kg single subcutaneous injection, Swiss mice, 30 min to 24 h, n=3; read-out: brain-to-plasma ratio calculated from the area under the concentration time curves
Description: Adult Swiss mice received a single subcutaneous injection of 40 mg/kg of the compound of formula (Ia) according to the present invention, the compound of formula (C), or doxycycline diluted in saline with 5% DMSO and 5% Tween 80 (doxycycline was used as a reference tetracycline). The mice were sacrificed 30 min, 1 h, 8 h, and 24 h after treatment. After sacrifice, brain and serum samples were collected and processed at each time point for tetracycline dosage, using an UHPLC system coupled with a triple quadrupole mass spectrometer LCMS-8030 (Shimadzu Corporation, Kyoto, Japan).

[6] = test system: dopamine neurons; test: Neuroprotection in midbrain mouse cultures, survival of TH+ dopamine neurons; assay type: cell-based; conditions: 10 μM, div14
Description: (§6) Midbrain mouse cultures were subjected to a maturation step until day in vitro (div) 7, and then gradually exposed to phenol red formulated DMEM/Nutrient mixture F12 Ham supplemented with 20 μg/mL of insulin and 2 μM of the NMDA receptor blocker MK-801. Under these conditions, which favor low-level, sustained oxidative insults, and lead ultimately to dopamine cell death, treatments with the compound of formula (Ib) according to the invention (at a concentration ranging from 0.1 to 5 μM) were performed or not, as well as treatments with the reference tetracycline antibiotic doxycycline (DOX; 10 μM) and the glycoprotein apotransferrin (APO; 100 μg/mL), the latter being used as reference neuroprotectant. At div14, cultures were fixed, and then processed for tyrosine hydroxylase (TH) immunocytochemistry to estimate the survival of dopamine neurons.
as §6, with “(Ic)” for “(Ib)”, “with” for “with the reference tetracycline antibiotic doxycycline (DOX; 10 μM) and”

[7] = test system: S. aureus ATCC 25923; test: MIC, broth dilution (Example 3); assay type: cell-based; conditions: Staphylococcus aureus, ATCC25923; 18 h at 37° C., MH broth
Description: as §3, §4, §5

[8] = test system: E. coli ATCC 25922; test: MIC, broth dilution (Example 3); assay type: cell-based; conditions: Escherichia coli, ATCC25922; 18 h at 37° C., MH broth
Description: as §3, §4, §5

[9] = test system: P. aeruginosa PA01; test: MIC, broth dilution (Example 3); assay type: cell-based; conditions: Pseudomonas aeruginosa, 18 h at 37° C., MH broth
Description: as §3, §4, §5

[10] = test system: E. faecalis ATCC 29212; test: MIC, broth dilution (Example 3); assay type: cell-based; conditions: Enterococcus faecalis, ATCC29212; 18 h at 37° C., MH broth
Description: as §3, §4, §5

[11] = test system: 4 test bacterial strains; test: Antimicrobial effects, summary over the 4 test bacterial strains (Example 9); assay type: cell-based
Text: (§7) Bacterial strains used in this study were: S. aureus (ATCC25923), E. coli (ATCC28922), E. faecalis (ATCC29212) and P. aeruginosa (PA01). The minimum inhibitory concentrations (MICs) were estimated using standardized protocols (Mawabo et al, J. Infect. Public Health 2015).

[12] = test system: S. aureus ATCC 25923; test: MIC, standardized protocols (Example 9); assay type: cell-based; conditions: Staphylococcus aureus, ATCC25923
Text: as §7

[13] = test system: E. coli ATCC 28922; test: MIC, standardized protocols (Example 9); assay type: cell-based; conditions: Escherichia coli, ATCC28922
Text: as §7

[14] = test system: P. aeruginosa PA01; test: MIC, standardized protocols (Example 9); assay type: cell-based; conditions: Pseudomonas aeruginosa
Text: as §7

[15] = test system: E. faecalis ATCC 29212; test: MIC, standardized protocols (Example 9); assay type: cell-based; conditions: Enterococcus faecalis, ATCC29212
Text: as §7

[16] = rescue of dopamine neurons from spontaneous oxidative stress, determined graphically

For `CC1c2ccc(-c3ccccc3)c(O)c2C(=O)C2=C(O)C3(O)C(=O)C(C(N)=O)=C(O)CC3[C@@H](O)C21` (stereo partly drawn) [Compound of formula (G)], the “Anti aggregant activity at 20 μM” value [1] was “yes”, the “Neuroprotection (EC 50 μM)” value [2, 16] was “no” and the Antibiotic activity [3] was “low”. The IC50 [4] was 8 µM.
In the case of `C[C@H]1c2cccc(O)c2C(=O)C2=C(O)[C@]3(O)C(=O)C(C(N)=O)=C(O)[C@@H](N(C)C)[C@@H]3[C@@H](O)[C@@H]21` [Doxycycline], the “Anti aggregant activity at 20 μM” value [1] is reported as “yes”, the neuroprotective effect ([2]; 10 μM, compared to apotransferrin 100 μg/mL) is reported as “shows a neuroprotective effect” and the EC50 [2, 16] is reported as 5.2 µM. The Antibiotic activity [3] was “high”, the IC50 [4] was 45 µM and the Kp [5] was 0.11 ± 0.03. The “neuroprotective effect (survival of dopamine neurons)” value [6] was “shows a neuroprotective effect”, the MIC [7] was 0.4 µM (≈ 0.178 µg/mL) and the MIC [8] was 3.12 µM (≈ 1.39 µg/mL). The MIC [9] was 64 µM (≈ 28.4 µg/mL) and the MIC [10] was 0.4 µM (≈ 0.178 µg/mL).
For `CN(C)[C@@H]1C(O)=C(C(N)=O)C(=O)[C@@]2(O)C(O)=C3C(=O)c4c(O)ccc(Cl)c4[C@@H](O)C3CC12` (stereo partly drawn) [Compound of formula (D)], the “Anti aggregant activity at 20 μM” value [1] was “yes”, the EC50 [2, 16] was 1.84 µM and the Antibiotic activity [3] was “high^##”. The “Anti inflammatory effects (IC 50 in μM)” value [4] was “no”.
With `CC1(O)c2c(Cl)ccc(O)c2C(=O)C2=C(O)C3C(=O)C(C(N)=O)=C(O)CC3CC21` (stereo not drawn) [Compound of formula (E)] the “Anti aggregant activity at 20 μM” value [1] was “yes”, the EC50 [2] was 2.01 µM and the Antibiotic activity [3] was “low”. For the same compound, the “Anti inflammatory effects (IC 50 in μM)” value [4] was “no”.
With `NC(=O)C1=C(O)C[C@@H]2C[C@@H]3Cc4cccc(O)c4C(=O)C3=C(O)[C@]2(O)C1=O` [Compound of formula (F), incyclinide] the “Anti aggregant activity at 20 μM” value [1] was “yes”, the “Neuroprotection (EC 50 μM)” value [2, 16] was “no” and the Antibiotic activity [3] was “Significant^###”. The IC50 [4] was 8 µM.
In the case of `C[C@H]1c2cccc(O)c2C(=O)C2=C(O)[C@]3(O)C(=O)C(C(N)=O)=C(O)C[C@@H]3[C@@H](O)[C@@H]21` [Compound of formula (B)], the “Anti aggregant activity at 20 μM” value [1] is reported as “yes”, the “Neuroprotection (EC 50 μM)” value [2, 16] is reported as “no” and the Antibiotic activity [3] is reported as “low”. The “Anti inflammatory effects (IC 50 in μM)” value [4] was “no”, the MIC [7] was 25 µM and the MIC [8] was 200 µM. For the same compound, the MIC [9] was > 2000 µM.
With `CN(C)[C@@H]1C(O)=C(C(N)=O)C(=O)[C@@]2(O)C(O)=C3C(=O)c4c(O)cccc4[C@@](C)(O)[C@H]3[C@H](O)[C@@H]12` [Oxytetracycline] the “antimicrobial effects against the 4 test bacterial strains” value [11] was “exerts antimicrobial effects against 3 of the 4 test bacterial strains”, the MIC [12] was 3.12 µM (≈ 1.44 µg/mL) and the MIC [13] was 3.12 µM (≈ 1.44 µg/mL). The MIC [14] was 50 µM (≈ 23 µg/mL) and the MIC [15] was 3.12 µM (≈ 1.44 µg/mL).
With `CN(C)[C@@H]1C(O)=C(C(N)=O)C(=O)[C@@]2(O)C(O)=C3C(=O)c4c(O)ccc(Cl)c4[C@@H](O)[C@H]3C[C@@H]12` [Demeclocycline] the MIC [7] was 0.4 µM (≈ 0.186 µg/mL), the MIC [8] was 3.12 µM (≈ 1.45 µg/mL) and the MIC [9] was 32 µM (≈ 14.9 µg/mL). For the same compound, the MIC [10] was 0.4 µM (≈ 0.186 µg/mL).
In the case of `CN(C)[C@@H]1C(O)=C(C(N)=O)C(=O)[C@@]2(O)C(O)=C3C(=O)c4c(O)ccc(Cl)c4[C@@](C)(O)[C@H]3C[C@@H]12` [Chlortetracycline], the “Anti aggregant activity at 20 μM” value [1] is reported as “yes”, the “Neuroprotection (EC 50 μM)” value [2, 16] is reported as “no” and the Antibiotic activity [3] is reported as “high”. It also gave an IC50 [4] of 1 µM, an MIC [7] of 1.6 µM (≈ 0.766 µg/mL) and an MIC [8] of 6.25 µM (≈ 2.99 µg/mL). For the same compound, the MIC [9] was 32 µM (≈ 15.3 µg/mL) and the MIC [10] was 1.6 µM (≈ 0.766 µg/mL).
